The test system of one data set is LLC-MK2 cells. Nature of the data set: Cytotoxicity in LLC-MK2 cells. Type of data set: cell-based, monkey. Particulars: % cytotoxicity in LLC-MK2 cells at 128 μM; standard deviation (N = 6) in parentheses. The source says: Table 2 Anti-trypanosomal activity of cysteine protease inhibitors. | column: Cytotox LLC-MK2 ^c
In data set [1] the target is T1, cathepsin L (Homo sapiens, UniProt P07711). Particulars: pIC50 = -log10(IC50/M); cited from earlier work.
Data set [2] relates to amastigote forms of T. cruzi CL Brener strain. The data set can be described thus: Anti-trypanosomal activity assay (beta-galactosidase reporter, infected LLC-MK2 cells). The format is cell-based. Particulars: Trypanosoma cruzi. As for the experimental part:
Assays were performed against amastigote forms of T. cruzi CL Brener strain, which expresses β-galactosidase derived from Escherichia coli, infecting monkey kidney (LLC-MK2) cells as described. Previously, LLC-MK2 host cells were cultivated in 96-wells microplates (10^3 cells/well). […] Then, the wells were washed with PBS to remove the extracellular parasites and the tested compounds were added in the final concentrations of 0.031, 0.125, 0.5, 2.0, 8.0, 32.0, 128 and 512 μM. After this, the microplates were incubated at 37°C, in CO2 atmosphere (5%), for 5 days. Then, 10 μL of FluoReporter lacZ/Galactosidase Quantitation Kit (Molecular Probes, ThermoFisher Scientific) were added and after 30 minutes the fluorometric reaction was read in a microplate reader (Synergy H1, Biotek) at 386 nm excitation and 448 nm emission. The metabolism of the substrate is directly correlated with the amount of β-galactosidase activity and, therefore, the number amastigotes. The percentage of activity for each compound was determined from the following formula: %activity = 100 –{[(X-PC)/(NC-PC)]x100}, where the optical density values of the samples (X), the positive controls (PC) and negative controls (NC) were used. Culture medium alone was used as positive control (PC) and cells with medium and 0.6% DMSO (v/v) as negative control (NC). All assays were performed in triplicate with two independent experiments.

For a further data set, the system named is Cathepsin K. Particulars: pIC50 = -log10(IC50/M); cited from earlier work.
In a further data set the test system is Cathepsin B. Particulars: pIC50 = -log10(IC50/M); cited from earlier work.
For another data set, the target named is T2, Recombinant cruzain (Trypanosoma cruzi, UniProt P25779).
T2 construct: consisting of the catalytic domain of cruzipain but excluding the carboxy-terminal extension; made in house
The data set can be described thus: Enzyme kinetic assay for cruzain (Z-FR-AMC hydrolysis). The format is biochemical. Particulars: pKi = -log10(Ki/M); uncertainty in parentheses; 37°C, pH 5.5. As for the experimental part: Recombinant cruzain, consisting of the catalytic domain of cruzipain but excluding the carboxy-terminal extension, was expressed and purified as previously described. Enzyme kinetic assays for cruzain were carried out at 37°C in 200 μL of a solution containing 100 mM acetate buffer pH 5.5, 300 mM NaCl, 5 mM dithiothreitol (DTT), 5% v/v dimethyl sulfoxide (DMSO), 0.01% v/v Triton X-100 and 0.15 nM cruzain, using Corning® 96-well black flat bottom microplates. (S)-N-(1-((cyanomethyl)amino)-1-oxo-3-phenylpropan-2-yl)benzamide was used as a positive control. The rate of the reaction was monitored using a Biotek Synergy HT plate reader through the fluorescence emission at 460 nm (excitation at 355 nm) due to the hydrolysis of the substrate Z-Phe-Arg-7-amido-4-methylcoumarin (Z-FR-AMC, Sigma-Aldrich). The enzyme stock aliquot was rapidly thawed at 37°C and kept on ice until activation, in which it was incubated for 20 min. in the assay buffer (100 mM acetate pH 5.5 and 5 mM DTT) followed by additional 2 min. incubation with inhibitors before the reaction was started by the addition of the substrate.
Visual inspection and a pre-reading of plate wells were performed to check for possible precipitation and background fluorescence, respectively. Fluorescence emission spectra were also recorded for all inhibitors, using the same excitation wavelength (355 nm) as for the fluorometric assay. […] The reaction was started by the addition of varying concentrations of the substrate and the wells monitored for a total of 5 minutes of reaction. The initial velocities of the substrate hydrolysis under first-order reaction were calculated by Gen5 Biotek software based on the linear-regression coefficient from the data fitting of Relative Fluorescence Unit (mRFU) as a function of time (min).
Each experiment was performed in duplicates for each compound being tested. A control measurement in absence of inhibitor (KM) was carried out for each setup plate and the kinetic affinity constants (Ki) were calculated from non-linear fit of Michaelis-Menten curves to the data of initial velocities as a function of eight different concentrations of the substrate Z-FR-AMC from 30.0–0.8 μM. All inhibitors were evaluated in two different concentrations, which were chosen based on a previous screening (percentage of inhibition) at 1.7 μM substrate (~KM). SigmaPlot (v. 10.0) was employed for the non-linear fit and the kinetic parameters determination.

In data set [3] the test system is Balb/C 3T3 clone A31 cells. Nature of the data set: MTT colorimetric cytotoxicity assay. Type of data set: cell-based, mouse. Particulars: % cytotoxicity in Balb/C 3T3 clone A31 cells at 128 μM; standard deviation (N = 8) in parentheses. As for the experimental part: Inhibition values were determined in the cell-based assay as previously described. […] Cells were plated at a concentration of 10^5 cell/mL in 96-well plates and incubated for 24 h. […] The cell viability was assessed during 24, 48 and 72 h using the MTT (Sigma-Aldrich) reagent, with an incubation time of 3 h. Formazan crystals were dissolved using a solubility reagent composed of DMSO, glacial acetic acid and […] for 1 h. The readout was obtained using Biotek Synergy HT plate reader at 570 nm. Benznidazole was used as control. This assay was done in quadruplicate in two independent experiments. Statistical analyses were made in GraphPad Prism 5. Concentration-response curves were fitted for the best compounds and the statistical parameters are provided with the graphs in S9 Fig in the supplemental material.

Data set [4] addresses T1, cathepsin L. Nature of the data set: Enzyme kinetic assay for cathepsin L. The format is biochemical. Particulars: pKi = -log10(Ki/M); uncertainty in parentheses; 37°C, pH 5.5. As for the experimental part: Enzyme kinetic assays for cathepsin L were performed in a similar manner to the cruzain assays at 37°C in 200 μL of a solution containing 100 mM acetate buffer pH 5.5, 300 mM NaCl, 1 mM dithiothreitol (DTT), 1 mM EDTA, 5% v/v dimethyl sulfoxide (DMSO), 0.01% v/v Triton X-100 and 0.30 nM cathepsin L, using Corning® 96-well black flat bottom microplates. Using the QFRET technology, compounds 9–12 were tested for inhibition of cathepsin L-mediated cleavage of a synthetic peptide Z-Phe-Arg-AMC (10 μM final concentration) using 0.1 nM [final] human Cat L (prepared in-house). […]

The test system of the next data set is Cathepsin S. Particulars: pIC50 = -log10(IC50/M); cited from earlier work.

Marks after values point to notes of the source that are not given here.

T1 sequence (P07711 114-333, species assumed): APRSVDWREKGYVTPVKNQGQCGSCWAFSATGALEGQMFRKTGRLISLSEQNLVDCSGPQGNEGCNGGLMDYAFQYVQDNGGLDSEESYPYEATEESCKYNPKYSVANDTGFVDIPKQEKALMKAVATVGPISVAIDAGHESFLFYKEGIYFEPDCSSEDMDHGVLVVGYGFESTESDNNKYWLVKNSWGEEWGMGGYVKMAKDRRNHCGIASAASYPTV
T2 sequence (P25779 123-337 limits assumed): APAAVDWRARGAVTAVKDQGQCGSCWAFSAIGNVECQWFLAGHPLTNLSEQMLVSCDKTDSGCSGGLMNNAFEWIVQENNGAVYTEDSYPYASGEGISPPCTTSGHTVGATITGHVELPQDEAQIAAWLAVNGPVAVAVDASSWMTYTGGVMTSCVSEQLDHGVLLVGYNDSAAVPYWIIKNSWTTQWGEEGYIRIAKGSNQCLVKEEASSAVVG

`CC(C)(F)C[C@H](N[C@@H](c1ccc(-c2ccc(S(C)(=O)=O)cc2)cc1)C(F)(F)F)C(=O)NC1(C#N)CC1` [Compound 4, odanacatib]: the “Cytotox LLC-MK2” value with LLC-MK2 cells is on record as 31 (4) %. Further, the “Cathepsin L pIC50” value on cathepsin L [1] is given as 5.5 ^d. Besides, in [2] (120 h, pEC50 = -log10(EC50/M), T. cruzi CL Brener amastigotes in LLC-MK2 cells, 5 days, read-out: pEC50 (anti-trypanosomal activity) (converted)), the EC50 was 2510 nM. Also, the inhibition at 0.125 µM in data set [2] (LLC-MK2, 0.125 μM, standard deviation (N = 6) in parentheses, read-out: %activity at 0.125 μM) came to 22%. Besides, the inhibition at 0.5 µM in data set [2] (LLC-MK2, 0.5 μM, standard deviation (N = 6) in parentheses, read-out: %activity at 0.5 μM) was determined as 28%. Besides, the inhibition at 2 µM in data set [2] (LLC-MK2, 2 μM, standard deviation (N = 6) in parentheses, read-out: %activity at 2 μM) is 36%. In data set [2] (LLC-MK2, 8 μM, standard deviation (N = 6) in parentheses, read-out: %activity at 8 μM), the inhibition at 8 µM was 44%. Besides, the “Cathepsin K pIC50” value in the data set on Cathepsin K is reported as 9.7 ^d. For the same molecule, the “Cathepsin B pIC50” value with Cathepsin B is recorded as 6.0 ^d. Moreover, the Ki on Recombinant cruzain was 126 nM; at cathepsin L [4] it was 6310 nM. Moreover, in data set [3], the “Cytotox Balb/C 3TC” value was 27 (15) %. Further, the “Cathepsin S pIC50” value in the data set on Cathepsin S was 7.2 ^d.

The values above are taken from PMC5344518, “Anti-trypanosomal activity of non-peptidic nitrile-based cysteine protease inhibitors” (PLoS Neglected Tropical Diseases, 2017).
